We go through 56 compounds from patent publication US20240217968A1, “PHARMACEUTICAL COMPOUND” (DUKE STREET BIO LIMITED, priority 2021, published 2024).

Structures are written as SMILES.

This assay has as its target T1, recombinant human Flag-tagged PARP7 (amino acids 456-657) (Homo sapiens, UniProt Q7Z3E1).
T1 construct: recombinant human Flag-tagged PARP7 (amino acids 456-657)
T1 sequence (Q7Z3E1 456-657): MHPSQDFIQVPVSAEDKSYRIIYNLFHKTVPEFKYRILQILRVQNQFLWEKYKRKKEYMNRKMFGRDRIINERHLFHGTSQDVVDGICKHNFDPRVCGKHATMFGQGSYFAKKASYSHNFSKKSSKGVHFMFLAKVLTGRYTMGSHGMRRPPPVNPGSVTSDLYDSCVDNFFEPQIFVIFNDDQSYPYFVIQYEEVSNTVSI
Kind of assay: PARP7 biochemical DELFIA assay (auto-MARylation). The conditions noted are these: DELFIA readout, IC50 class. The method, boiled down: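 Readout is DELFIA time-resolved Eu fluorescence (Ex337 nm, Em620 nm) of biotin-ADP-ribose on immobilised Flag-tagged PARP7 456-657. Enzyme (12.5-37.5 nM as added) sat 30 min with compound before biotin-NAD+ (15 μM solution, pH 7.5 HEPES buffer) started 2-3 h room-temperature self-modification, stopped with excess NAD+.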

As to `O=C(CCOCCc1cccc2c(=O)[nH]ncc12)N1CCN(c2ccc(C(F)(F)F)cc2)C(=O)C1` [Compound 207], the IC50 is 100 to 1000 nM.

`N#Cc1ccc2oc(N3CCN(C(=O)CCOCCc4cccc5c(=O)[nH]ncc45)CC3)nc2c1` [Compound 208]: the concentration for half-maximal inhibition (IC50) was no more than 100 nM.

For the compound `CCC(OCCCC(=O)N1CCN(c2ncc(C(F)(F)F)cn2)CC1)c1cccc2c(=O)[nH]ncc12` (centres unmarked) [Compound 209], the half-inhibitory concentration (IC50) was no more than 100 nM.

`CC(COCCC(=O)N1CCN(c2ccc(Cl)cn2)CC1)n1nc(C(F)(F)F)c2c(=O)[nH]ncc21` (centres unmarked) [Compound 211]: the concentration for half-maximal inhibition (IC50) was no more than 100 nM.

For the compound `CC(COCCC(=O)N1CCN(c2ccc(Cl)cn2)CC1)n1nc(C(F)(F)F)c2c(=O)[nH]ncc21` (centres unmarked) [Compound 212], the concentration for half-maximal inhibition (IC50) was no more than 100 nM.

With `O=C(CCOCCc1cccc2c(=O)[nH]ncc12)N1CCN(c2nc3ccccc3[nH]2)CC1` [Compound 213], the IC50 was no more than 100 nM.

Regarding `Cn1c(N2CCN(C(=O)CCOCCc3cccc4c(=O)[nH]ncc34)CC2)nc2ccccc21` [Compound 214], the IC50 is no more than 100 nM.

`O=C(CCOCCn1nc(C(F)(F)F)c2c(=O)[nH]ncc21)N1CCN(c2nc3cc(F)ccc3o2)CC1` [Compound 215, 1-(2-(3-(4-(5-fluorobenzo[d]oxazol-2-yl)piperazin-1-yl)-3-oxopropoxy)ethyl)-3-(trifluoromethyl)-1,5-dihydro-4H-pyrazolo[3,4-d]pyridazin-4-one]: the concentration for half-maximal inhibition (IC50) is no more than 100 nM.

With `O=C1CCc2cnc(N3CCN(C(=O)CCOCCc4cccc5c(=O)[nH]ncc45)CC3)nc2N1` [Compound 216], the IC50 is no more than 100 nM.

Turning to `Cc1ccc(CCOCCC(=O)N2CCN(c3ncc(C(F)(F)F)cn3)CC2)c2cn[nH]c(=O)c12` [Compound 217], the IC50 was no more than 100 nM.

`N#Cc1ccc2nc(N3CCN(C(=O)CCOCCn4nc(C(F)(F)F)c5c(=O)[nH]ncc54)CC3)oc2c1` [Compound 218]: the IC50 was no more than 100 nM.

Regarding `O=C(CCOCCc1cccc2c(=O)[nH]ncc12)N1CCC(c2cc(C(F)(F)F)on2)CC1` [Compound 219], the IC50 was in the range of 100 to 1000 nM.

For the compound `O=C(CCOCCc1cccc2c(=O)[nH]ncc12)N1CCN(c2ncc3c(n2)NCCC3)CC1` [Compound 220], the concentration for half-maximal inhibition (IC50) was no more than 100 nM.

Take `O=C(CCOCCc1ccc(Cl)c2c(=O)[nH]ncc12)N1CCN(c2ncc(C(F)(F)F)cn2)CC1` [Compound 226]: the IC50 was no more than 100 nM.

As for `O=C(CCOCCc1c(F)ccc2c(=O)[nH]ncc12)N1CCN(c2ncc(C(F)(F)F)cn2)CC1` [Compound 229], the half-inhibitory concentration (IC50) was no more than 100 nM.

Turning to `Cc1c(C)n(CCOCCC(=O)N2CCN(c3ncc(C(F)(F)F)cn3)CC2)c2cn[nH]c(=O)c12` [Compound 230], the IC50 is no more than 100 nM.

`O=C(CCOCCc1cncc2c(=O)[nH]ncc12)N1CCN(c2ncc(C(F)(F)F)cn2)CC1` [Compound 231]: the IC50 is no more than 100 nM.

As to `O=C(CCOCCn1cc(C(F)(F)F)c2c(=O)[nH]ncc21)N1CCN(c2ncc(Cl)cn2)CC1` [Compound 232], the IC50 was no more than 100 nM.

As to `O=C(CCOCCc1cccc2c(=O)[nH]ccc12)N1CCN(c2ncc(C(F)(F)F)cn2)CC1` [Compound 233], the half-inhibitory concentration (IC50) was no more than 100 nM.

Turning to `O=C1NCCn2c(CCOCCC(=O)N3CCN(c4ncc(C(F)(F)F)cn4)CC3)nc(C(F)(F)F)c21` [Compound 235, 3-(2-(3-oxo-3-(4-(5-(trifluoromethyl)pyrimidin-2-yl)piperazin-1-yl)propoxy)ethyl)-1-(trifluoromethyl)-6,7-dihydroimidazo[1,5-a]pyrazin-8(5H)-one], the concentration for half-maximal inhibition (IC50) is no more than 100 nM.

As for `O=C(CCOCCn1nc(C(F)F)c2c(=O)[nH]ncc21)N1CCN(c2ncc(C(F)(F)F)cn2)CC1` [Compound 236, 3-(difluoromethyl)-1-(2-(3-oxo-3-(4-(5-(trifluoromethyl)pyrimidin-2-yl)piperazin-1-yl)propoxy)ethyl)-1,5-dihydro-4H-pyrazolo[3,4-d]pyridazin-4-one], the concentration for half-maximal inhibition (IC50) is no more than 100 nM.

As for `CC1(C)CN(C(=O)CCOCCn2cc(C(F)(F)F)c3c(=O)[nH]ncc32)CCN1c1ccc(C(F)(F)F)cn1` [Compound 237], the concentration for half-maximal inhibition (IC50) was no more than 100 nM.

With `O=C(CCOCCn1cc(C(F)(F)F)c2c(=O)[nH]ncc21)N1CCN(c2ccc(Cl)cn2)CC1` [Compound 238], the half-inhibitory concentration (IC50) was no more than 100 nM.

For `O=C(CCOCCN1C(=O)CCc2c1cn[nH]c2=O)N1CCN(c2ccc(C(F)(F)F)cn2)CC1` [Compound 240, 1-(2-(3-oxo-3-(4-(5-(trifluoromethyl)pyridin-2-yl)piperazin-1-yl)propoxy)ethyl)-4,6-dihydropyrido[2,3-d]pyridazine-2,5(1H,3H)-dione], the IC50 was no more than 100 nM.

As to `O=C(CCOCCN1C(=O)CCc2c1cn[nH]c2=O)N1CCN(c2ncc(Cl)cn2)CC1` [Compound 242], the IC50 was no more than 100 nM.

Consider `Cc1nn(C(C)COCCC(=O)N2CCN(c3ccc(C#N)cn3)CC2)c2cn[nH]c(=O)c12` (centres unmarked) [Compound 243], for which the concentration for half-maximal inhibition (IC50) was no more than 100 nM.

On to `Cc1nn(C(C)COCCC(=O)N2CCN(c3ccc(C#N)cn3)CC2)c2cn[nH]c(=O)c12` (centres unmarked) [Compound 244], for which the IC50 was no more than 100 nM.

Consider `Cc1nn(C(C)COCCC(=O)N2CCN(c3ncc(C(F)(F)F)cn3)CC2)c2cn[nH]c(=O)c12` (centres unmarked) [Compound 246], for which the IC50 was no more than 100 nM.

For the compound `O=C(CCOCCn1nc(C(F)(F)F)c2c(=O)[nH]ncc21)N1CCN(c2ncc(C(F)(F)F)s2)CC1` [Compound 247], the 50% inhibitory concentration (IC50) is no more than 100 nM.

As to `CC(COCCC(=O)N1CCN(c2nc(C#N)cs2)CC1)n1nc(C(F)(F)F)c2c(=O)[nH]ncc21` (centres unmarked) [Compound 251], the half-inhibitory concentration (IC50) is no more than 100 nM.

As for `CC(C)(C)c1cnc(N2CCN(C(=O)CCOCCc3cccc4c(=O)[nH]ncc34)CC2)nc1` [Compound 252], the IC50 is no more than 100 nM.

For the compound `Cc1nn(CCOCCC(=O)N2CCN(c3ncc(C(F)(F)F)cn3)C(C)C2)c2cn[nH]c(=O)c12` (centres unmarked) [Compound 256], the half-maximal inhibitory concentration (IC50) was no more than 100 nM.

On to `O=C(CCOCCn1nc(C(F)(F)F)c2c(=O)[nH]ncc21)N1CCN(c2nc3ccccc3[nH]2)CC1` [Compound 257], for which the 50% inhibitory concentration (IC50) is no more than 100 nM.

`CC(COCCC(=O)N1CCN(c2ncc(C(F)(F)F)s2)CC1)n1nc(C(F)(F)F)c2c(=O)[nH]ncc21` (centres unmarked) [Compound 259]: the IC50 was no more than 100 nM.

As for `CCc1nc2c(=O)[nH]ncc2n1CCOCCC(=O)N1CCN(c2ncc(C(F)(F)F)cn2)CC1` [Compound 260], the concentration for half-maximal inhibition (IC50) lay in the range of 1000 to 10000 nM.

For `O=C(CCOCCN1C(=O)CCc2c1cn[nH]c2=O)N1CCN(c2ccc(Cl)cn2)CC1` [Compound 261], the IC50 was no more than 100 nM.

Consider `CC(COCCC(=O)N1CCN(c2ncc(C(F)F)cn2)CC1)n1nc(C(F)(F)F)c2c(=O)[nH]ncc21` (centres unmarked) [Compound 264], for which the 50% inhibitory concentration (IC50) is no more than 100 nM.

For `CC(COCCC(=O)N1CCN(c2ncc(C(F)F)cn2)CC1)n1nc(C(F)(F)F)c2c(=O)[nH]ncc21` (centres unmarked) [Compound 265], the half-maximal inhibitory concentration (IC50) is no more than 100 nM.

Regarding `CC(COCCC(=O)N1CCN(c2cnc(C(F)(F)F)cn2)CC1)n1nc(C(F)(F)F)c2c(=O)[nH]ncc21` (centres unmarked) [Compound 267], the IC50 was no more than 100 nM.

For `Cc1nn(CCOCCC(=O)N2CCN(c3ncc(C(F)(F)F)cn3)CC2C)c2cn[nH]c(=O)c12` (centres unmarked) [Compound 268], the IC50 is no more than 100 nM.

As for `CC(COCCC(=O)N1CCN(c2ccc(C#N)cn2)CC1)n1nc(C(F)(F)F)c2c(=O)[nH]ncc21` (centres unmarked) [Compound 269], the IC50 was no more than 100 nM.

In the case of `N#Cc1ccc(N2CCN(C(=O)CCOCCn3c(C(F)(F)F)nc4c(=O)[nH]ncc43)CC2)nc1` [Compound 272], the half-inhibitory concentration (IC50) lay in the range of 1000 to 10000 nM.

Take `CC(COCCC(=O)N1CCN(c2ncc(Cl)cn2)CC1)n1cc(C(F)(F)F)c2c(=O)[nH]ncc21` (centres unmarked) [Compound 273]: the half-inhibitory concentration (IC50) is no more than 100 nM.

For `CC(COCCC(=O)N1CCN(c2ccc(OC(F)F)cn2)CC1)n1nc(C(F)(F)F)c2c(=O)[nH]ncc21` (centres unmarked) [Compound 275], the IC50 was no more than 100 nM.

Turning to `O=C(CCOCCn1nc(C(F)(F)F)c2c(=O)[nH]ncc21)N1CCN(c2nnc(C(F)(F)F)s2)CC1` [Compound 276], the half-maximal inhibitory concentration (IC50) is no more than 100 nM.

Turning to `O=C(CCOCCN1C(=O)CCc2c1cn[nH]c2=O)N1CCN(c2nc3ccccc3o2)CC1` [Compound 277], the half-maximal inhibitory concentration (IC50) is no more than 100 nM.

For `CC(COCCC(=O)N1CCN(c2ccc(C3CC3)cn2)CC1)n1nc(C(F)(F)F)c2c(=O)[nH]ncc21` (centres unmarked) [Compound 278], the half-maximal inhibitory concentration (IC50) was no more than 100 nM.

As to `O=C(CCOCCc1cccc2c(=O)[nH]ncc12)N1CCC(c2cc(C(F)(F)F)[nH]n2)CC1` [Compound 282], the IC50 lay within 1000 to 10000 nM.

For the compound `CC(COCCC(=O)N1CCN(c2ncc(C#N)s2)CC1)n1nc(C(F)(F)F)c2c(=O)[nH]ncc21` (centres unmarked) [Compound 283], the IC50 was no more than 100 nM.

`O=C(CCOCCn1nc(C(F)(F)F)c2c(=O)[nH]ncc21)N1CCN(c2ncc(Cl)cn2)CC1` [Compound 285]: the half-maximal inhibitory concentration (IC50) was no more than 100 nM.

`Cc1cnc(N2CCN(C(=O)CCOCC(C)n3nc(C(F)(F)F)c4c(=O)[nH]ncc43)CC2)nc1` (centres unmarked) [Compound 286]: the IC50 was no more than 100 nM.

In the case of `Cc1cnc(N2CCN(C(=O)CCOCC(C)n3nc(C(F)(F)F)c4c(=O)[nH]ncc43)CC2)nc1` (centres unmarked) [Compound 287], the IC50 is no more than 100 nM.

As to `CC(COCCC(=O)N1CCN(c2ncc(C3COC3)cn2)CC1)n1nc(C(F)(F)F)c2c(=O)[nH]ncc21` (centres unmarked) [Compound 288], the half-maximal inhibitory concentration (IC50) is no more than 100 nM.

With `CC(COCCC(=O)N1CCN(c2nnc(C(F)(F)F)s2)CC1)n1nc(C(F)(F)F)c2c(=O)[nH]ncc21` (centres unmarked) [Compound 292], the IC50 is no more than 100 nM.

Turning to `CC(COCCC(=O)N1CCN(c2ncc(OC(F)F)cn2)CC1)n1nc(C(F)(F)F)c2c(=O)[nH]ncc21` (centres unmarked) [Compound 293], the IC50 is no more than 100 nM.

`O=C(CCOCCn1nc(C(F)(F)F)c2c(=O)[nH]ncc21)N1CCN(c2ccc(C3COC3)cn2)CC1` [Compound 295]: the IC50 is no more than 100 nM.
